“And” between values parts separate entries of the source, which are not always exact repeats. Equal entries are not always repeated.
Columns and labels:
[1] = system: Rattus norvegicus; conditions: for LD50: acute, oral, mortality
[2] = system: Mus musculus
[3] = system: Apis mellifera; conditions: acute, mortality
[4] = system: Bibionidae; conditions: chronic/long-term; duration: 28 days; other
[5] = system: Canidae; conditions: chronic; duration: 1 years; oral; Dog Other; organ weight
[6] = system: Colinus virginianus
[7] = system: Cyprinodon variegatus; conditions: acute; duration: 96 hours; mortality
[8] = system: Daphnia magna; conditions: chronic/long-term; duration: 21 days; reproduction
[9] = system: Hypoaspis aculeifer; conditions: chronic/long-term; duration: 16 days; mortality
[10] = system: Oncorhynchus mykiss; conditions: chronic/long-term; duration: 90 days; development
[11] = system: Tagia sp.
[12] = system: Typhlodromus pyri; assay: LR50; higher = less toxic; conditions: chronic/long-term; duration: 7 days; mortality

SMILES	LD50 [1] [mg/kg-day]	LD50 ([2]; acute, oral, mortality) [mg/kg-day]	LD50 ([3]; duration: 48 hours, oral, unspecified) [µg/piece]	LD50 ([3]; duration: 72 hours, dermal) [µg/piece]	NOEC [4]	NOAEL [5] [mg/kg-day]	LC50 ([6]; acute, oral, diet, mortality) [mg/kg-day]	LD50 ([6]; acute, oral, mortality) [mg/kg-day]	NOAEL ([6]; reproduction developmental, reproduction) [mg/kg-day]	LC50 [7] [µg/mL]	NOEC [8] [mg/L]	NOEC [9] [mg/kg]	NOAEL ([2]; chronic, duration: 18 months, histopathology: nonneoplastic) [mg/kg-day]	NOEC [10] [mg/L]	NOAEL ([1]; chronic, duration: 2 years, organ weight) [mg/kg-day]	NOAEL ([1]; reproduction developmental, no effects) [mg/kg-day]	LC50 ([11]; acute, duration: 14 days, mortality) [mg/kg]	NOEC ([11]; chronic/long-term, duration: 56 days, reproduction) [mg/kg]	LR50 [12] [g/ha]
Cc1cc(Cl)cc2c(=O)n(C)c(-c3cc(Br)[nH]n3)nc12 [Chlorantraniliprole metabolite (IN-LBA24)]	> 2000	–	–	–	–	–	–	–	–	–	–	–	–	–	–	–	–	–	–
CNC(=O)c1cc(Br)[nH]n1 [5-Bromo-N-methyl-1H-pyrazole-3-carboxamide]	–	> 2000	–	–	–	–	–	–	–	–	–	–	–	–	–	–	–	–	–
CNC(=O)c1cc(Cl)cc(C)c1NC(=O)c1cc(Br)nn1-c1ncccc1Cl [Chlorantraniliprole]	> 5000	–	> 104	> 4	0.0025 mg/L and 0.005 mg/kg	278	> 1730	> 2250	10.1	> 12	0.00447	100	158	0.11	156	1200	> 1000	1000	> 750
